Key:
[1] = clinical; conditions: human, in vivo, 225 mg
Method: PK parameters were derived using non-compartmental methods with Phoenix® WinNonlin® version 6.4 (Certara, LP, Princeton, NJ, USA). All descriptive and inferential statistical computations were performed using SAS® version 9.1 (SAS Institute, Cary, NC, USA).

[2] = test system: Wee1; set-up: method as in PMID 25964244, PMID 19887545; conditions: read-out: half-maximal inhibitory concentration (IC50); cited from earlier work
[3] = human, in vivo
Method: (§1) Safety was appraised throughout the study by the assessment of clinical and laboratory adverse events (AEs; graded by Common Terminology Criteria for Adverse Events [CTCAE], version 4.03), physical examination, and evaluation of vital signs and laboratory data (clinical chemistry and hematology).
(§2) Patients were evaluated according to the treatment received.

[4] = test system: CYP3A; conditions: read-out: IC50, reversible inhibition of CYP3A; ref AstraZeneca, data on file, 2020; 16; cited from earlier work
[5] = safety and tolerability, adverse events (CTCAE version 4.03) in patients
Method: as §1, §2

[6] = Adavosertib n = 30, Adavosertib + cocktail n = 26

## C=CCn1c(=O)c2cnc(Nc3ccc(N4CCN(C)CC4)cc3)nc2n1-c1cccc(C(C)(C)O)n1 [adavosertib]
[1]
  CLss/F, arithmetic mean (SD): 38.0 (12.11) L/h
  CLss/F, median (minimum, maximum): 36.9 (24.3, 63.5) L/h
  Tmax: 3 h
  intra-patient variability for AUC0–12 and Cmax: < 10%
[1]; AUC0–12, arithmetic mean (SD)
  AUC(0-t): 12.7 µM·h
[1]; AUC0–12, geometric mean
  AUC(0-t): 12.2 µM·h
[1]; AUC0–12, median (minimum, maximum)
  AUC(0-t): 12 µM·h
[1]; arithmetic mean (SD)
  Cmax: 1490 nM
[1]; geometric mean
  Cmax: 1440 nM
[1]; median (minimum, maximum)
  Cmax: 1420 nM
[2]
  IC50: 0.0052 µM
[3]
  AEs with an outcome of death: No AEs with an outcome of death were observed
[4]
  IC50: 14 µM
[5]; [6]
  Acute kidney injury (causally related), any grade: 1 (3.3) Number of patients (%)
  Acute kidney injury (causally related), grade ≥3: 1 ( 3. 3) Number of patients (%)
  Anemia (causally related), any grade: 0 Number of patients (%)
  Anemia (causally related), grade ≥3: 0 Number of patients (%)
  Any AE (causally related), any grade: 11 (36.7) Number of patients (%)
  Any AE (causally related), grade ≥3: 4 (13.3) Number of patients (%)
  Blood and lymphatic system disorders (causally related), any grade: 2 ( 6. 7) Number of patients (%)
  Blood and lymphatic system disorders (causally related), grade ≥3: 1 (3.3) Number of patients (%)
  Blood creatinine increased (causally related), any grade: 0 Number of patients (%)
  Blood creatinine increased (causally related), grade ≥3: 0 Number of patients (%)
  Decreased appetite (causally related), any grade: 0 Number of patients (%)
  Decreased appetite (causally related), grade ≥3: 0 Number of patients (%)
  Dehydration (causally related), any grade: 1 (3.3) Number of patients (%)
  Dehydration (causally related), grade ≥3: 1 (3.3) Number of patients (%)
  Diarrhea (causally related), any grade: 10 (33.3) Number of patients (%)
  Diarrhea (causally related), grade ≥3: 3 (10.0) Number of patients (%)
  Dizziness (causally related), any grade: 0 Number of patients (%)
  Dizziness (causally related), grade ≥3: 0 Number of patients (%)
  Fatigue (causally related), any grade: 0 Number of patients (%)
  Fatigue (causally related), grade ≥3: 0 Number of patients (%)
  Flushing (causally related), any grade: 0 Number of patients (%)
  Flushing (causally related), grade ≥3: 0 Number of patients (%)
  Gastrointestinal disorders (causally related), any grade: 11 (36.7) Number of patients (%)
  Gastrointestinal disorders (causally related), grade ≥3: 3 (10.0) Number of patients (%)
  General disorders and administration site conditions (causally related), any grade: 0 Number of patients (%)
  General disorders and administration site conditions (causally related), grade ≥3: 0 Number of patients (%)
  Hypokalemia (causally related), any grade: 1 (3.3) Number of patients (%)
  Hypokalemia (causally related), grade ≥3: 1 (3.3) Number of patients (%)
  Investigations (causally related), any grade: 2 (6.7) Number of patients (%)
  Investigations (causally related), grade ≥3: 0 Number of patients (%)
  Metabolism and nutrition disorders (causally related), any grade: 2 (6.7) Number of patients (%)
  Metabolism and nutrition disorders (causally related), grade ≥3: 2 ( 6. 7) Number of patients (%)
  Muscle spasms (causally related), any grade: 0 Number of patients (%)
  Muscle spasms (causally related), grade ≥3: 0 Number of patients (%)
  Musculoskeletal and connective tissue disorders (causally related), any grade: 0 Number of patients (%)
  Musculoskeletal and connective tissue disorders (causally related), grade ≥3: 0 Number of patients (%)
  Nasal ulcer (causally related), any grade: 0 Number of patients (%)
  Nasal ulcer (causally related), grade ≥3: 0 Number of patients (%)
  Nausea (causally related), any grade: 3 (10.0) Number of patients (%)
  Nausea (causally related), grade ≥3: 1 (3.3) Number of patients (%)
  Nervous system disorders (causally related), any grade: 0 Number of patients (%)
  Nervous system disorders (causally related), grade ≥3: 0 Number of patients (%)
  Neutropenia (causally related), any grade: 1 (3.3) Number of patients (%)
  Neutropenia (causally related), grade ≥3: 1 (3.3) Number of patients (%)
  Pancreatitis (causally related), any grade: 1 (3.3) Number of patients (%)
  Pancreatitis (causally related), grade ≥3: 1 (3.3) Number of patients (%)
  Renal and urinary disorders (causally related), any grade: 1 (3.3) Number of patients (%)
  Renal and urinary disorders (causally related), grade ≥3: 1 (3.3) Number of patients (%)
  Respiratory, thoracic and mediastinal disorders (causally related), any grade: 0 Number of patients (%)
  Respiratory, thoracic and mediastinal disorders (causally related), grade ≥3: 0 Number of patients (%)
  Stomatitis (causally related), any grade: 0 Number of patients (%)
  Stomatitis (causally related), grade ≥3: 0 Number of patients (%)
  Thrombocytopenia (causally related), any grade: 1 (3.3) Number of patients (%)
  Thrombocytopenia (causally related), grade ≥3: 0 Number of patients (%)
  Vascular disorders (causally related), any grade: 0 Number of patients (%)
  Vascular disorders (causally related), grade ≥3: 0 Number of patients (%)
  Vomiting (causally related), any grade: 6 (20.0) Number of patients (%)
  Vomiting (causally related), grade ≥3: 1 (3.3) Number of patients (%)
  Weight decreased (causally related), any grade: 2 (6.7) Number of patients (%)
  Weight decreased (causally related), grade ≥3: 0 Number of patients (%)
[5]; Total (n = 30)
  Acute kidney injury (causally related), any grade: 1 (3.3) Number of patients (%)
  Acute kidney injury (causally related), grade ≥3: 1 (3.3) Number of patients (%)
  Anemia (causally related), any grade: 1 (3.3) Number of patients (%)
  Anemia (causally related), grade ≥3: 1 (3.3) Number of patients (%)
